Source: ChEMBL document CHEMBL1140165, “Rotationally constrained 2,4-diamino-5,6-disubstituted pyrimidines: a new class of histamine H4 receptor antagonists with improved druglikeness and in vivo efficacy in pain and inflammation models” (J Med Chem, 2008)
One block for each compound: values may come before it. Calls of active or inactive are those of the source. The rule behind the calls is not given here.

Columns and labels:
Histamine H4 receptor [1] = target: T1, Histamine H4 receptor (Rattus norvegicus, UniProt Q91ZY1); test: (§1) Antagonist activity at rat histamine H4 receptor expressed in HEK293 cells assessed as inhibition of histamine-induced intracellular calcium elevation by FLIPR assay; format: functional, cell-based
Histamine H4 receptor [2] = target: T2, Histamine H4 receptor (Mus musculus, UniProt Q91ZY2); test: Antagonist activity at mouse histamine H4 receptor expressed in HEK293 cells assessed as inhibition of histamine-induced intracellular calcium elevation by FLIPR assay; format: functional, cell-based
T2 sequence (Q91ZY2 whole entry): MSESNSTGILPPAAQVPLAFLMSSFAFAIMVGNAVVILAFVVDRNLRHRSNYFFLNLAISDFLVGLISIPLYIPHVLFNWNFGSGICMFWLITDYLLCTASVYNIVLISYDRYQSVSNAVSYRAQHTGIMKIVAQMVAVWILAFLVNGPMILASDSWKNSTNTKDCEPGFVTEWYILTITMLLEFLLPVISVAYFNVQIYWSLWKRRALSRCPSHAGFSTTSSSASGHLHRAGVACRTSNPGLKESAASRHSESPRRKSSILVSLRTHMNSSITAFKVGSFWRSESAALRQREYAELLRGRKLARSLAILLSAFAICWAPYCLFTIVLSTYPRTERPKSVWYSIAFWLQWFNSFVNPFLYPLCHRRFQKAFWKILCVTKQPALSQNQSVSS

Histamine H4 receptor [3] = target: T3, Histamine H4 receptor (Homo sapiens, UniProt Q9H3N8); test: Displacement of [3H]histamine from human histamine H4 receptor expressed in HEK293 cells; format: cell-based
Histamine H4 receptor [4] = target: T1, Histamine H4 receptor; test: Displacement of [3H]histamine from rat histamine H4 receptor expressed in HEK293 cells; format: cell-based
BMMC = test: Blockade of histamine-induced morphological changes in BALB/c mouse BMMC by flow cytometry; format: functional, cell-based
[5] = Selectivity ratio of Ki for human histamine H4 receptor to Ki for histamine H1 receptor
[6] = Selectivity ratio of Ki for human histamine H4 receptor to Ki for histamine H2 receptor
Homo sapiens = species: Homo sapiens; test: Selectivity ratio of Ki for human histamine H4 receptor to Ki for human histamine H3 receptor
[7] = Selectivity ratio of Ki for human histamine H4 receptor to Ki for 5HT1A receptor
[8] = Selectivity ratio of Ki for human histamine H4 receptor to Ki for 5HT1D receptor
[9] = Selectivity ratio of Ki for human histamine H4 receptor to Ki for 5HT2A receptor
[10] = Selectivity ratio of Ki for human histamine H4 receptor to Ki for dopamine D2 receptor
[11] = Selectivity ratio of Ki for human histamine H4 receptor to Ki for adrenergic alpha1 receptor
[12] = target: Prostaglandin G/H synthase 1 (Homo sapiens) (UniProt P23219); test: Binding affinity at COX1
[13] = target: T4, Prostaglandin G/H synthase 2 (Homo sapiens) (UniProt P35354); test: Binding affinity at COX2
T4 sequence (whole entry): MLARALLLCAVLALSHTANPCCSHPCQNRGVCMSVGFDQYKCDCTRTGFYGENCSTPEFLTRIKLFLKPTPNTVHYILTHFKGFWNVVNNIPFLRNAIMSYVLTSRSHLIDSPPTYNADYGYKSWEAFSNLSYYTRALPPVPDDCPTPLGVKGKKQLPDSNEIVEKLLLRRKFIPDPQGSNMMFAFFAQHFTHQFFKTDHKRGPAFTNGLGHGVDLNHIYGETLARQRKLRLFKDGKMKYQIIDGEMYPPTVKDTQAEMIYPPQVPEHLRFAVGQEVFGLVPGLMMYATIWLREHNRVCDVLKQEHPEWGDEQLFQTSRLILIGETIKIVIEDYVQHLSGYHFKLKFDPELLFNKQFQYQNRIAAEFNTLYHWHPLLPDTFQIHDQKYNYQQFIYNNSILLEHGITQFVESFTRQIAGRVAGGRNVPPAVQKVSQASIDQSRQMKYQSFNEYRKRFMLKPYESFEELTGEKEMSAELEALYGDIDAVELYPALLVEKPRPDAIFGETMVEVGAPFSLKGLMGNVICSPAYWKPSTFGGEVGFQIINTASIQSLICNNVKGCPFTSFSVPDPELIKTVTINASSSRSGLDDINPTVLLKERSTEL

[14] = target: Mu-type opioid receptor (Homo sapiens) (UniProt P35372); test: Binding affinity to mu opioid receptor
[15] = target: Kappa-type opioid receptor (Homo sapiens) (UniProt P41145); test: Binding affinity to kappa opioid receptor
[16] = target: Delta-type opioid receptor (Homo sapiens) (UniProt P41143); test: Binding affinity to delta opioid receptor
[17] = target: Cannabinoid receptor 1 (Homo sapiens) (UniProt P21554); test: Binding affinity to CB1 receptor
[18] = target: Cannabinoid receptor 2 (Homo sapiens) (UniProt P34972); test: Binding affinity to CB2 receptor
Liver microsomes [19] = test: Metabolic stability in rat liver microsomes; format: ADME, Microsome
Liver microsomes [20] = test: Metabolic stability in human liver microsomes; format: ADME, Microsome
[21] = Metabolic stability in mouse liver microsomes; format: ADME, Microsome
[22] = Protein binding in rat; format: ADME, organism-based; details: in vivo, read-out: PB (converted)
[23] = Protein binding in human; format: ADME, organism-based; details: in vivo, read-out: PB (converted)
Cytochrome P450 3A4 = Cytochrome P450 3A4 (Homo sapiens, UniProt P08684); test: Inhibition of CYP3A4 upto 10 uM; format: ADME
Cytochrome P450 2D6 = Cytochrome P450 2D6 (Homo sapiens, UniProt P10635); test: Inhibition of CYP2D6 upto 10 uM; format: ADME
Cytochrome P450 2C9 = Cytochrome P450 2C9 (Homo sapiens, UniProt P11712); test: Inhibition of CYP2C9 upto 10 uM; format: ADME
[24] = Half life in rat at 10 mg/kg, iv; format: ADME, organism-based; parameters: dose 10 mg/kg, route intravenous; details: in vivo
[25] = Blood clearance in rat at 10 mg/kg, iv; format: ADME, organism-based; parameters: dose 10 mg/kg, route intravenous; details: whole blood
[26] = Terminal volume of distribution in rat at 10 mg/kg, iv; format: ADME, organism-based; parameters: dose 10 mg/kg, route intravenous; details: in vivo, read-out: Vbeta
[27] = Fractional bioavailability in rat at 10 mg/kg, iv and 10 mg/kg, po; format: ADME, organism-based; details: in vivo
Mus musculus [28] = test: Antiinflammatory activity against ip dosed BALB/c mouse assessed as inhibition of zymosan-induced peritonitis after 2 hrs pretreated 30 mins before zymosan challenge; format: functional
Mus musculus [29] = test: Inhibition of clobenpropit-induced itching in ip dosed CD1/ICR mouse assessed as blockade of scratching in hind paw for 25 mins pretreated 30 mins before clobenpropit challenge; format: functional
Histamine H4 receptor [30] = target: T3, Histamine H4 receptor; details: HEK293
[31] = target: Histamine H4 receptor (Rattus norvegicus) (UniProt Q91ZY1); test: Antagonist activity at rat histamine H4 receptor expressed in HEK293 cells assessed as inhibition of histamine-induced intracellular calcium elevation by FLIPR assay relative to histamine; format: functional, cell-based
[32] = target: Histamine H4 receptor (Rattus norvegicus) (UniProt Q91ZY1); test: as §1; format: functional, cell-based

Sequence of Cytochrome P450 3A4 (P08684 whole entry): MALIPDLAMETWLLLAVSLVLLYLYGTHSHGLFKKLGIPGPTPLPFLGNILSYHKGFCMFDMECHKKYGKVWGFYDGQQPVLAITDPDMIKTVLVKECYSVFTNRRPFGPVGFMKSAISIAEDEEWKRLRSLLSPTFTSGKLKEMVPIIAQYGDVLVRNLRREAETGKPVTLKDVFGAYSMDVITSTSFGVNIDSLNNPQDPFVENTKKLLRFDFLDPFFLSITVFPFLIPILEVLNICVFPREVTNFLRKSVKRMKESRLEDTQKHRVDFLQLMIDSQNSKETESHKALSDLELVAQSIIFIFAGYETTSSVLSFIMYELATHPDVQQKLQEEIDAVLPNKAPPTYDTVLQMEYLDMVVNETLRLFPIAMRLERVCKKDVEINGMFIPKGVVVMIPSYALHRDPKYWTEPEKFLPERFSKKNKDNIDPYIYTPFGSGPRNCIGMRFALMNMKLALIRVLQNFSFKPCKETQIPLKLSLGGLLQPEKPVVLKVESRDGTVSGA
Sequence of Histamine H4 receptor (Rattus norvegicus) (Q91ZY1 whole entry): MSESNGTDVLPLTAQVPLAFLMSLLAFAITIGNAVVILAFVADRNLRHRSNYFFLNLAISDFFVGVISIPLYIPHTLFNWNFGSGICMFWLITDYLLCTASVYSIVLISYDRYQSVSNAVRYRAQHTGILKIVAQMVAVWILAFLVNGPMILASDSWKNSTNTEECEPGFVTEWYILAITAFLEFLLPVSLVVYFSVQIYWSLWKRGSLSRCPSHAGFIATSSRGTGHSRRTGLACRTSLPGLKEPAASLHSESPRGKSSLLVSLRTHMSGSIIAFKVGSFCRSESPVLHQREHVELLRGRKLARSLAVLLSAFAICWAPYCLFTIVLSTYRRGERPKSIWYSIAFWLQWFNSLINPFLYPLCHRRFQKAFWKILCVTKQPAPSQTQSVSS
T1 sequence (Q91ZY1 whole entry): as above
Sequence of Cytochrome P450 2C9 (P11712 whole entry): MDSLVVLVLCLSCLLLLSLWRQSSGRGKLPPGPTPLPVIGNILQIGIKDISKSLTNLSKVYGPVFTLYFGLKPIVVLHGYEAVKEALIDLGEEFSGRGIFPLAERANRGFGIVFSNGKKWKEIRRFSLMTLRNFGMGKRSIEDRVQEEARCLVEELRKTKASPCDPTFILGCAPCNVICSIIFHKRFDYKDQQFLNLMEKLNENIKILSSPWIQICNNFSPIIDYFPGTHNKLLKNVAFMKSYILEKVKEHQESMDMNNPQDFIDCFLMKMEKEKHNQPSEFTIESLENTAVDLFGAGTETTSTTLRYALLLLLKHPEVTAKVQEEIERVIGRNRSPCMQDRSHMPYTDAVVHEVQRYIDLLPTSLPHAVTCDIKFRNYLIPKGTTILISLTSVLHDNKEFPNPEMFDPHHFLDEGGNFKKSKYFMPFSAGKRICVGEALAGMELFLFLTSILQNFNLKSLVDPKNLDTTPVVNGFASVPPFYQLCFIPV
Sequence of Cytochrome P450 2D6 (P10635 whole entry): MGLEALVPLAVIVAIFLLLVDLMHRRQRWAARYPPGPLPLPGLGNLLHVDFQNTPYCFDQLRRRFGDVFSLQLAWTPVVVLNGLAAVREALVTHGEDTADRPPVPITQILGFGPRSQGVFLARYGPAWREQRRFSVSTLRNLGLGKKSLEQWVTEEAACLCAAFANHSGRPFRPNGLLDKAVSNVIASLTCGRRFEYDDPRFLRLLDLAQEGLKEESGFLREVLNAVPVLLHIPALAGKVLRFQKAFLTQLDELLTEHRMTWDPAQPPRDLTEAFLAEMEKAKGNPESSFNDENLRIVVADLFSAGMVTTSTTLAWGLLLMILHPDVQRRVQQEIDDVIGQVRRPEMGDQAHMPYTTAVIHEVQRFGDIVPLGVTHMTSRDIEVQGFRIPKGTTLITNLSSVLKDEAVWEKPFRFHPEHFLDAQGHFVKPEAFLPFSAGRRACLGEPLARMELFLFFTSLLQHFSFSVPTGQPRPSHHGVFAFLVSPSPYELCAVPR
Sequence of Mu-type opioid receptor (Homo sapiens) (P35372 whole entry): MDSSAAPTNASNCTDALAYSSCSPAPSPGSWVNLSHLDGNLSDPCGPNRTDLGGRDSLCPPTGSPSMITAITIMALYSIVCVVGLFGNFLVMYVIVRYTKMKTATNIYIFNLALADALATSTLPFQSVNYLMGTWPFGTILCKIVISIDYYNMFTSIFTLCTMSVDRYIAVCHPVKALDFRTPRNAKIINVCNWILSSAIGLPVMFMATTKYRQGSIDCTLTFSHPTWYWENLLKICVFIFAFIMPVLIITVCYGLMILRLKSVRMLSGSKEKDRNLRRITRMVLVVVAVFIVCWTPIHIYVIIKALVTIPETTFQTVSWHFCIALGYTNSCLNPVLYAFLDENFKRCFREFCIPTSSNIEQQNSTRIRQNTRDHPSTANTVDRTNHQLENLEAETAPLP
Sequence of Kappa-type opioid receptor (Homo sapiens) (P41145 whole entry): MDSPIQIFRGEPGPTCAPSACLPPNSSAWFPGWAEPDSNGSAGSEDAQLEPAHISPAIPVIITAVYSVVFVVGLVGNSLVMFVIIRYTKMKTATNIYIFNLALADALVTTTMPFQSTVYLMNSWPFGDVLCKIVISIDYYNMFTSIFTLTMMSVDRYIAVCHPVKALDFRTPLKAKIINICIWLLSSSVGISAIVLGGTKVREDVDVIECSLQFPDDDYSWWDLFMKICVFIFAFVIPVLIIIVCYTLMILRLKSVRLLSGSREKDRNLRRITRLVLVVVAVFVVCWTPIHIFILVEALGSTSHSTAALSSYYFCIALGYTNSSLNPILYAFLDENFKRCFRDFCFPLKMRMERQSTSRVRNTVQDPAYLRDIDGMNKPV
Sequence of Prostaglandin G/H synthase 1 (Homo sapiens) (P23219 whole entry): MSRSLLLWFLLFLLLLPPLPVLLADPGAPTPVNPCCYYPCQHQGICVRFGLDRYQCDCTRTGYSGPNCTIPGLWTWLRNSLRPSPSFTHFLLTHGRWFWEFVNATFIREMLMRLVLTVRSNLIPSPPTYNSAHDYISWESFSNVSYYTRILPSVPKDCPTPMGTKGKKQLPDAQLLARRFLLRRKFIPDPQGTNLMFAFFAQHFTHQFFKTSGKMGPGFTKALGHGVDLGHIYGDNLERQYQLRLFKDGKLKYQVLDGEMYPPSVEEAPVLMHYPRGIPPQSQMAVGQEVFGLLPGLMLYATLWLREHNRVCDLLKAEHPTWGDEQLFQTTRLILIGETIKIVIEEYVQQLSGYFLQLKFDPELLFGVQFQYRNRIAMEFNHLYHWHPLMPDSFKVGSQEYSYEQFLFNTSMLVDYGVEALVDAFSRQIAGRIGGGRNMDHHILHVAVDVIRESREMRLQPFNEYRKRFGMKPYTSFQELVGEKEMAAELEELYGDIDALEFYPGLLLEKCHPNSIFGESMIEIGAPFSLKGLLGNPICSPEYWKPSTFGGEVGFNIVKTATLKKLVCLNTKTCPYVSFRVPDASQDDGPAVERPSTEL
Sequence of Delta-type opioid receptor (Homo sapiens) (P41143 whole entry): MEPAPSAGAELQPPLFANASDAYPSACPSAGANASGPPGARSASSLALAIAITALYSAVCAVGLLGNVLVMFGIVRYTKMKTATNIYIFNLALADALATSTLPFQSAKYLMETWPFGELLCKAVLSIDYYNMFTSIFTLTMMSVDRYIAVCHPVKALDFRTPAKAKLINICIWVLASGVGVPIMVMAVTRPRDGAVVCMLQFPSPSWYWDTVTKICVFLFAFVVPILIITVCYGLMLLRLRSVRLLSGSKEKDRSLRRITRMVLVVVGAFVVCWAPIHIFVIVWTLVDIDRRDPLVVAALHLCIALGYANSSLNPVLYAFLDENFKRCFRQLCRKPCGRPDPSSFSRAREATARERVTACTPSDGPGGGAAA
Sequence of Cannabinoid receptor 1 (Homo sapiens) (P21554 whole entry): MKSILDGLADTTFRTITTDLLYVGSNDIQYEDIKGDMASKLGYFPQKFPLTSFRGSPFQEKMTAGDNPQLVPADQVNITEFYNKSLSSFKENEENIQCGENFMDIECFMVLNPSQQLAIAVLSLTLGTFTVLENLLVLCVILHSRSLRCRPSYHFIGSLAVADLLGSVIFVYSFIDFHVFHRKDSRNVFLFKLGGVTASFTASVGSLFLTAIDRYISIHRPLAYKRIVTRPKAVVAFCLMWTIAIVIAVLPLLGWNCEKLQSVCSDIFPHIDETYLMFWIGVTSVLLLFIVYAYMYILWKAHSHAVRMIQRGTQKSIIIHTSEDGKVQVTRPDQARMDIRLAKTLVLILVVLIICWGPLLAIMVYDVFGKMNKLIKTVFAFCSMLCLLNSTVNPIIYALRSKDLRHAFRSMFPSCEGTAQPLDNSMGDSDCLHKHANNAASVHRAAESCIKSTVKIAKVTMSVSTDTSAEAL
Sequence of Cannabinoid receptor 2 (Homo sapiens) (P34972 whole entry): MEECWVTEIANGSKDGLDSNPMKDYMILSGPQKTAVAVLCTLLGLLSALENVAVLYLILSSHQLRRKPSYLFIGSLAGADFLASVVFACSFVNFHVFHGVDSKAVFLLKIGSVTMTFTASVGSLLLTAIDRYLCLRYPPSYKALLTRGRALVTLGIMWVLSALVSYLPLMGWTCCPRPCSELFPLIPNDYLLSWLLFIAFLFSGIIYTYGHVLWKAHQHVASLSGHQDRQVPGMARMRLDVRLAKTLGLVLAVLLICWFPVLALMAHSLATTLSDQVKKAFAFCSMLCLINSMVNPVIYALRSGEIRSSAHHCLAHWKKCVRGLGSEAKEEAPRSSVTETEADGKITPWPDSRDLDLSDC

Compound: Nc1nc2c(c(N3CCNCC3)n1)CCCc1ccc(F)cc1-2
EC50 (Histamine H4 receptor [1]): 6.03 nM | EC50 (Histamine H4 receptor [2]): 4.79 nM | Ki (Histamine H4 receptor [3]; read-out: Ki): 5.1 nM | Ki (Histamine H4 receptor [4]): 1.45 nM | Activity (BMMC): Active | Ratio Ki [5]: > 1290 | Ratio Ki [6]: > 1820 | Ratio Ki (Homo sapiens): 470 | Ratio Ki [7]: 3070 | Ratio Ki [8]: 850 | Ratio Ki [9]: 765 | Ratio Ki [10]: > 2000 | Ratio Ki [11]: 1220 | Activity [12]: inactive | Activity [13]: inactive | Activity [14]: inactive | Activity [15]: inactive | Activity [16]: inactive | Activity [17]: inactive | Activity [18]: inactive | Stability (Liver microsomes [19]): 200 pmol/min/mg | Stability (Liver microsomes [20]): 27.3 pmol/min/mg | Stability [21]: 32.4 pmol/min/mg | fraction unbound [22]: 0.34 | fraction unbound [23]: 0.39 | Activity (Cytochrome P450 3A4): Not Active | Activity (Cytochrome P450 2D6): Not Active | Activity (Cytochrome P450 2C9): Not Active | half-life [24]: 3.5 h | clearance [25]: 60 mL/min/kg | Vd [26]: 18.2 L/kg | bioavailability [27]: 18% | ED50 (Mus musculus [28]): 134 µmol/kg | ED50 (Mus musculus [29]): 10 µmol/kg | pKb (Histamine H4 receptor [30]): 8.01

Compound: CN[C@@H]1CCN(c2nc(N)nc3c2CCCCCc2ccccc2-3)C1
pKb [32]: 7.25 | Activity (BMMC): inactive | pKb (Histamine H4 receptor [30]): 7.6

Compound: CN[C@@H]1CCN(c2nc(N)nc3c2CCCCc2ccccc2-3)C1
pKb [32]: 7.5 | Activity (BMMC): inactive | pKb (Histamine H4 receptor [30]): 8.15

Compound: Nc1nc2c(c(N3CCNCC3)n1)CCCCC2c1ccccc1 (centres undefined)
EC50 (Histamine H4 receptor [1]): 55 nM | EC50 (Histamine H4 receptor [2]): 45.7 nM | Ki (Histamine H4 receptor [3]; read-out: Ki): 39.8 nM | Ki (Histamine H4 receptor [4]): 4.47 nM | Activity (BMMC): Active | Ratio Ki [5]: > 160 | Ratio Ki [6]: > 230 | Ratio Ki (Homo sapiens): 56 | Ratio Ki [7]: 11 | Ratio Ki [8]: 81 | Ratio Ki [9]: 2.2 | Ratio Ki [10]: 480 | Ratio Ki [11]: 125 | Stability (Liver microsomes [19]): 108 pmol/min/mg | Stability (Liver microsomes [20]): 28.5 pmol/min/mg | Stability [21]: 10.9 pmol/min/mg | fraction unbound [22]: 0.24 | fraction unbound [23]: 0.41 | Activity (Cytochrome P450 3A4): Not Active | Activity (Cytochrome P450 2D6): Not Active | Activity (Cytochrome P450 2C9): Not Active | half-life [24]: 3.2 h | clearance [25]: 80 mL/min/kg | Vd [26]: 22 L/kg | bioavailability [27]: 31% | ED50 (Mus musculus [28]): 79 µmol/kg | ED50 (Mus musculus [29]): 10 µmol/kg | pKb (Histamine H4 receptor [30]): 7.24

Compound: CN[C@@H]1CCN(c2nc(N)nc3c2CCc2ccccc2-3)C1
pKb [32]: 7.66 | pKb (Histamine H4 receptor [30]): 8.29

Compound: CN1CCN(c2cc(-c3ccccc3)nc(N)n2)CC1
Efficacy [31]: 79% | Ki (Histamine H4 receptor [3]; read-out: pKi (converted)): 5.01 nM | Ki (Histamine H4 receptor [4]): 14.1 nM | Stability (Liver microsomes [19]): 168 pmol/min/mg | Stability (Liver microsomes [20]): 22 pmol/min/mg | Stability [21]: 119 pmol/min/mg | fraction unbound [22]: 0.35 | fraction unbound [23]: 0.51 | Activity (Cytochrome P450 3A4): Not Active | Activity (Cytochrome P450 2D6): Not Active | Activity (Cytochrome P450 2C9): Not Active | pKb (Histamine H4 receptor [30]): 8.39

The next lines start with the values.

EC50 (Histamine H4 receptor [1]): 20 nM | Efficacy [31]: 96% | Ki (Histamine H4 receptor [3]; read-out: pKi (converted)): 12.9 nM | Ki (Histamine H4 receptor [4]): 4.79 nM | Stability (Liver microsomes [19]): 65.8 pmol/min/mg | Stability (Liver microsomes [20]): 18.7 pmol/min/mg | Stability [21]: 43.6 pmol/min/mg | fraction unbound [22]: 0.31 | fraction unbound [23]: 0.72 | Activity (Cytochrome P450 3A4): Not Active | Activity (Cytochrome P450 2D6): Not Active | Activity (Cytochrome P450 2C9): Not Active | pKb (Histamine H4 receptor [30]): 8.75
Compound: Nc1nc2c(c(N3CCNCC3)n1)Cc1ccccc1-2

EC50 (Histamine H4 receptor [1]): 15.5 nM | Efficacy [31]: 76% | Ki (Histamine H4 receptor [3]; read-out: pKi (converted)): 15.5 nM | Ki (Histamine H4 receptor [4]): 5.37 nM | Stability (Liver microsomes [19]): 192 pmol/min/mg | Stability (Liver microsomes [20]): 102 pmol/min/mg | Stability [21]: 195 pmol/min/mg | fraction unbound [22]: 0.3 | fraction unbound [23]: 0.22 | Activity (Cytochrome P450 3A4): Not Active | Activity (Cytochrome P450 2D6): Not Active | Activity (Cytochrome P450 2C9): Not Active | pKb (Histamine H4 receptor [30]): 8.08
Compound: CN1CCN(c2nc(N)nc3c2CCc2ccccc2-3)CC1

EC50 (Histamine H4 receptor [1]): 19.1 nM | pKb (Histamine H4 receptor [30]): 8.5
Compound: CN[C@@H]1CCN(c2nc(N)nc3c2Cc2ccccc2-3)C1

EC50 (Histamine H4 receptor [1]): 24 nM | Efficacy [31]: 52% | Ki (Histamine H4 receptor [3]; read-out: pKi (converted)): 52.5 nM | Ki (Histamine H4 receptor [4]): 9.12 nM | Stability (Liver microsomes [19]): 104 pmol/min/mg | Stability (Liver microsomes [20]): 45.9 pmol/min/mg | Stability [21]: 18.4 pmol/min/mg | fraction unbound [22]: 0.73 | fraction unbound [23]: 0.59 | Activity (Cytochrome P450 3A4): Not Active | Activity (Cytochrome P450 2D6): Not Active | Activity (Cytochrome P450 2C9): Not Active | pKb (Histamine H4 receptor [30]): 7.58
Compound: Nc1nc2c(c(N3CCNCC3)n1)CCc1ccccc1-2
